# Measured values as given in patent US7741327B2 (Hoffmann-La Roche Inc., priority 2008, dated 2010).
# Molecular target: T1, Recombinant human liver GK1 (GST-GK) (Homo sapiens, UniProt P35557)
# T1 construct: made in house; host or cells: E. coli
# T1 sequence (P35557 1-466 isoform P35557-2): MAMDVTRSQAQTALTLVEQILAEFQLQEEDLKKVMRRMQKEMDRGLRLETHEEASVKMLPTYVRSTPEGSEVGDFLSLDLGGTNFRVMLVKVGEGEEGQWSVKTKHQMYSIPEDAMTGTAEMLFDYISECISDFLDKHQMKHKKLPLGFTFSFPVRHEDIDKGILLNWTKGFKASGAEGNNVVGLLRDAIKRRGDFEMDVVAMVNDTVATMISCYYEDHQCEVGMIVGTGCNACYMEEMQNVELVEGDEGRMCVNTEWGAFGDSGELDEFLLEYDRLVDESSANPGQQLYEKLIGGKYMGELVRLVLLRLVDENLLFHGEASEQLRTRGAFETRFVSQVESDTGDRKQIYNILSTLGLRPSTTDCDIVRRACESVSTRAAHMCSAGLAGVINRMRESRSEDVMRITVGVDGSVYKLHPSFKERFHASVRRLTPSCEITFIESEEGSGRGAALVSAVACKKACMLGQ
# Experiment: In vitro glucokinase activity (G6PDH-coupled NADH assay)
# Assay type: biochemical
# Conditions: 30° C., 5 mM D-glucose, 10% DMSO
# Outline: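 GST-tagged human liver GK1 from E. coli, assayed at 30° C in 25 mM Hepes pH 7.1 with 5 mM D-glucose, 1 mM ATP, 1.8 mM NAD and G6PDH coupling, 10% DMSO final; reaction started with enzyme after 10 min preincubation. NADH formation followed at OD340; SC1.5 is activator concentration giving 50% increase over DMSO control rate.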
row,Structure (SMILES),SC1.5 (concentration of activator that produced a 50% increase in the activity of GK) [µM]
1,"CC(C)C[C@@H](C(=O)Nc1ccn(C)n1)N1CC(Oc2cccc(Cl)c2Cl)=CC1=O.Cl [Example 78, (S)-2-[4-(2,3-Dichloro-phenoxy)-2-oxo-2,5-dihydro-pyrrol-1-yl]-4-methyl-pentanoic acid (1-methyl-1H-pyrazol-3-yl)-amide Hydrochloride]",0.4
2,"CCCc1ccccc1OC1=CC(=O)N([C@@H](CC2CCCCC2)C(=O)Nc2ccn(CC(C)(C)O)n2)C1 [Example 198, (S)-3-cyclohexyl-N-[1-(2-hydroxy-2-methyl-propyl)-1H-pyrazol-3-yl]-2-[2-oxo-4-(2-propyl-phenoxy)-2,5-dihydro-pyrrol-1-yl]-propionamide]",0.056
3,"CC(C)C[C@@H](C(=O)Nc1ccn(CC(C)(C)O)n1)N1CC(Oc2cccc(O)c2N)=CC1=O [Example 241, (S)-2-[4-(2-Amino-3-hydroxy-phenoxy)-2-oxo-2,5-dihydro-pyrrol-1-yl]-4-methyl-pentanoic acid [1-(2-hydroxy-2-methyl-propyl)-1H-pyrazol-3-yl]-amide]",2.458
4,"CC(CC(C(=O)Nc1ccn(CC(C)(C)O)n1)N1CC(Oc2ccccc2Cl)=CC1=O)C(F)(F)F (stereo not shown) [Example 226, 2-[4-(2-Chloro-phenoxy)-2-oxo-2,5-dihydro-pyrrol-1-yl]-5,5,5-trifluoro-4-methyl-pentanoic acid [1-(2-hydroxy-2-methyl-propyl)-1H-pyrazol-3-yl]-amide]",0.944
5,"CC(C)C[C@@H](C(=O)Nc1ccn(CC(C)(C)O)n1)N1CC(Oc2cccc(C#N)c2)=CC1=O [Example 138, (S)-2-[4-(3-Cyano-phenoxy)-2-oxo-2,5-dihydro-pyrrol-1-yl]-4-methyl-pentanoic acid [1-(2-hydroxy-2-methyl-propyl)-1H-pyrazol-3-yl]-amide]",3.733
6,"CCOc1ccc(F)c(OC2=CC(=O)N([C@H](CC3CCOCC3)C(=O)Nc3ccn(CC(C)(C)O)n3)C2)c1F (single isomer, unassigned) [Example 258]",4.435
7,"O=C(Nc1ccn(C[C@@H](O)CO)n1)C(CC(F)F)N1CC(Oc2ccccc2Cl)=CC1=O (stereo partly drawn) [Example 221, 2-[4-(2-Chloro-phenoxy)-2-oxo-2,5-dihydro-pyrrol-1-yl]-N-[1-((R)-2,3-dihydroxy-propyl)-1H-pyrazol-3-yl]-4,4-difluoro-butyramide]",17.303
8,"CCOc1cccc(OC2=CC(=O)N([C@@H](C[C@H](C)OCC)C(=O)Nc3ccn(CC(C)(C)O)n3)C2)c1F [Example 259, (2S,4S)-4-Ethoxy-2-[4-(3-ethoxy-2-fluoro-phenoxy)-2-oxo-2,5-dihydro-pyrrol-1-yl]-pentanoic acid [1-(2-hydroxy-2-methyl-propyl)-1H-pyrazol-3-yl]-amide]",0.984
9,"CC[C@@H](C)C[C@@H](C(=O)Nc1ccn(C[C@@H](O)CO)n1)N1CC(Oc2ccccc2Cl)=CC1=O [Example 255, (2S,4R)-2-[4-(2-Chloro-phenoxy)-2-oxo-2,5-dihydro-pyrrol-1-yl]-4-methyl-hexanoic acid [1-((R)-2,3-dihydroxy-propyl)-1H-pyrazol-3-yl]-amide]",0.048
10,"CC(C)(O)Cn1ccc(NC(=O)C(CC2CC3CCC2C3)N2CC(Oc3c(F)cccc3F)=CC2=O)n1 (stereo not shown) [Example 228, 3-Bicyclo[2.2.1]hept-2-yl-2-[4-(2,6-difluoro-phenoxy)-2-oxo-2,5-dihydro-pyrrol-1-yl]-N-[1-(2-hydroxy-2-methyl-propyl)-1H-pyrazol-3-yl]-propionamide]",0.365
11,"CCO[C@H](C)C[C@@H](C(=O)Nc1ccn(CC(C)(C)O)n1)N1CC(Oc2cccc(Cl)c2Cl)=CC1=O [Example 94, (2S,4R)-2-[4-(2,3-Dichloro-phenoxy)-2-oxo-2,5-dihydro-pyrrol-1-yl]-4-ethoxy-pentanoic acid [1-(2-hydroxy-2-methyl-propyl)-1H-pyrazol-3-yl]-amide]",0.772
12,"CC(C)C[C@@H](C(=O)Nc1ccn(C[C@@H]2COC(C)(C)O2)n1)N1CC(Oc2cccc(N(C)C)c2F)=CC1=O [Example 139, (S)-2-[4-(3-Dimethylamino-2-fluoro-phenoxy)-2-oxo-2,5-dihydro-pyrrol-1-yl]-4-methyl-pentanoic acid [1-((R)-2,2-dimethyl-[1,3]dioxolan-4-yl-methyl)-1H-pyrazol-3-yl]-amide]",0.796
13,"Cc1ccccc1OC1=CC(=O)N([C@@H](CC(C)C)C(=O)Nc2ccn(C)n2)C1 [Example 120, (S)-4-Methyl-2-(2-oxo-4-o-tolyloxy-2,5-dihydro-pyrrol-1-yl)-pentanoic acid (1-methyl-1H-pyrazol-3-yl)-amide]",0.72
14,"CCOc1cccc(OC2=CC(=O)N([C@@H](CC(C)C)C(=O)Nc3ccn(CC(C)(C)O)n3)C2)c1 [Example 163, (S)-2-[4-(3-Ethoxy-phenoxy)-2-oxo-2,5-dihydro-pyrrol-1-yl]-4-methyl-pentanoic acid [1-(2-hydroxy-2-methyl-propyl)-1H-pyrazol-3-yl]-amide]",0.239
15,"O=C(Nc1ccn(C[C@@H](O)CO)n1)[C@H](Cc1ccc(F)cc1)N1CC(Oc2ccccc2Cl)=CC1=O [Example 187, (S)-2-[4-(2-chloro-phenoxy)-2-oxo-2,5-dihydro-pyrrol-1-yl]-N-[1-((R)-2,3-dihydroxy-propyl)-1H-pyrazol-3-yl]-3-(4-fluorophenyl)-propionamide]",0.771
16,"O=C(O)c1ccc(NC(=O)[C@H](CC2CCCCC2)N2CC(Oc3c(F)cccc3Cl)=CC2=O)nc1 [Example 70, 6-{(S)-2-[4-(2-Chloro-6-fluoro-phenoxy)-2-oxo-2,5-dihydro-pyrrol-1-yl]-3-cyclohexyl-propionylamino}-nicotinic acid]",0.048
17,"O=C(Nc1ccn(C[C@@H](O)CO)n1)[C@H](CC1CCCCC1)N1CC(Oc2ccccc2Cl)=CC1=O [Example 63, (S)-2-[4-(2-Chloro-phenoxy)-2-oxo-2,5-dihydro-pyrrol-1-yl]-3-cyclohexyl-N-[1-((R)-2,3-dihydroxy-propyl)-1-H-pyrazol-3-yl]-propionamide]",0.009
18,"CC(C)C[C@@H](C(=O)Nc1ccn(C)n1)N1CC(Oc2cccc(CC(C)(C)O)c2)=CC1=O [Example 235, (S)-2-{4-[3-(2-Hydroxy-2-methyl-propyl)-phenoxy]-2-oxo-2,5-dihydro-pyrrol-1-yl}-4-methyl-pentanoic acid (1-methyl-1H-pyrazol-3-yl)-amide]",2.061
19,"CC(C)(O)Cn1ccc(NC(=O)[C@H](CC2CCCCC2)N2CC(Oc3c(F)cccc3Cl)=CC2=O)n1 [Example 67, (S)-2-[4-(2-Chloro-6-fluoro-phenoxy)-2-oxo-2,5-dihydro-pyrrol-1-yl]-3-cyclohexyl-N-[1-(2-hydroxy-2-methyl-propyl)-1H-pyrazol-3-yl]-propionamide]",0.028
